For assay [1], the species on record is Mus musculus. As to the kind of experiment: Decrease in eosinophil influx reduction in mouse at 4 ug, it relative to control. In kind it is functional. More on the design: scale not given: the % may be the effect or the level left.
The species named for assay [2] is Mus musculus. The assay can be described thus: Decrease in eosinophil influx reduction in mouse at 20 ug, it relative to control. It counts as functional. Also noted: scale not given: the % may be the effect or the level left.
The subject of a further assay is U-937. The assay can be described thus: cells. The conditions noted are these: Homo sapiens. In kind it is functional, cell-based.
Assay [3] is filed under the species Mus musculus. The assay can be described thus: Decrease in number of neutrophils in mouse BAL at 1 ug, it at 2 hrs post dose relative to control. In kind it is functional. Also noted: scale not given: the % may be the effect or the level left.
The species entered for assay [4] is Rattus norvegicus. As to the kind of experiment: Decrease in number of neutrophils in rat BAL at 100 ug, it at 2 hrs post dose relative to control. In kind it is functional. Also noted: scale not given: the % may be the effect or the level left.
The species entered for assay [5] is Mus musculus. The assay can be described thus: Decrease in number of neutrophils in mouse BAL at 4 ug, it at 8 hrs post dose relative to control. In kind it is functional. More on the design: scale not given: the % may be the effect or the level left.
For assay [6], the species on record is Mus musculus. The assay can be described thus: Decrease in neutrophil influx reduction in mouse at 20 ug, it relative to control. In kind it is functional. Also noted: scale not given: the % may be the effect or the level left.
The species entered for assay [7] is Rattus norvegicus. The assay can be described thus: Decrease in number of neutrophils in rat BAL at 20 ug, it at 12 hrs post dose relative to control. In kind it is functional. More on the design: scale not given: the % may be the effect or the level left.
Assay [8] is filed under the species Mus musculus. The assay can be described thus: Decrease in number of neutrophils in mouse BAL at 4 ug, it at 12 hrs post dose relative to control. It counts as functional. Also noted: scale not given: the % may be the effect or the level left.
The species named for assay [9] is Mus musculus. The assay can be described thus: Decrease in number of neutrophils in mouse BAL at 20 ug, it at 2 hrs post dose relative to control. In kind it is functional. Also noted: scale not given: the % may be the effect or the level left.
The species named for assay [10] is Mus musculus. The assay can be described thus: Decrease in neutrophil influx reduction in mouse at 1 ug, it relative to control. It counts as functional. Also noted: scale not given: the % may be the effect or the level left.
Assay [11] is filed under the species Mus musculus. The assay can be described thus: Decrease in neutrophil influx reduction in mouse at 4 ug, it relative to control. In kind it is functional. More on the design: scale not given: the % may be the effect or the level left.
For assay [12], the species on record is Mus musculus. As to the kind of experiment: Decrease in number of neutrophils in mouse BAL at 4 ug, it at 2 hrs post dose relative to control. Also noted: scale not given: the % may be the effect or the level left. It counts as functional.
The species entered for assay [13] is Rattus norvegicus. As to the kind of experiment: Decrease in number of neutrophils in rat BAL at 5 ug, it at 2 hrs post dose relative to control. More on the design: scale not given: the % may be the effect or the level left. In kind it is functional.
Assay [14] is filed under the species Mus musculus. The assay can be described thus: Decrease in eosinophil influx reduction in mouse at 1 ug, it relative to control. In kind it is functional. More on the design: scale not given: the % may be the effect or the level left.
The species entered for assay [15] is Rattus norvegicus. The assay can be described thus: Decrease in number of neutrophils in rat BAL at 20 ug, it at 2 hrs post dose relative to control. Also noted: scale not given: the % may be the effect or the level left. In kind it is functional.
The species entered for the next assay is Homo sapiens. As to the kind of experiment: Selectivity ratio of IC50 for PI3Kbeta in human U937 cells to IC50 for GST-tagged PI3Kdelta in human U937 cells. It counts as cell-based.
The species entered for assay [16] is Rattus norvegicus. As to the kind of experiment: Decrease in number of neutrophils in rat BAL at 20 ug, it at 8 hrs post dose relative to control. It counts as functional. Also noted: scale not given: the % may be the effect or the level left.

Description for U-937: Cytotoxicity against in human U937 cells

The term IC50 denotes the concentration that gives 50% inhibition. For `COCCOCCOCC#Cc1cccc2nc(Cn3nc(-c4cc(O)cc(F)c4)c4c(N)ncnc43)n(Cc3ccccc3C(F)(F)F)c(=O)c12`, the Activity in the assay listed under Mus musculus [1] was found to be 85%; in the assay listed under Mus musculus [2], 91%; in the assay listed under Mus musculus [3], 19%; in the assay filed under Rattus norvegicus [4] it was 73%; in the assay filed under Mus musculus [5], 45%; in the assay listed under Mus musculus [6] it was 80%. Also, the Activity in the assay listed under Rattus norvegicus [7] is on record as 10%; in the assay listed under Mus musculus [8], 23%; in the assay listed under Mus musculus [9], 68%; in the assay listed under Mus musculus [10], 18%; in the assay filed under Mus musculus [11] it was 70%; in the assay filed under Mus musculus [12], 53%. The Activity came to 9% in the assay filed under Rattus norvegicus [13], 20% in the assay listed under Mus musculus [14], 58% in the assay filed under Rattus norvegicus [15] and 33% in the assay listed under Rattus norvegicus [16]. The same compound showed a concentration for half-maximal inhibition (IC50) in the assay on U-937 of 7.4 nM. Besides, the Ratio IC50 in the assay filed under Homo sapiens turned out to be 2000.
